Experimental data as given in patent US12077503B2, “Substituted cyclic amides and their use as herbicides” (FMC CORPORATION, priority 2015, dated 2024).

Tests used:
Format in all cases: in vivo
[1] = tested on: ragweed (common ragweed, Ambrosia elatior); test: Test A preemergence; conditions: Ambrosia artemisiifolia, pre-emergence, 240 h, 0 to 100 scale where 0 is no effect and 100 is complete control, read-out: Ragweed plant response rating; for pest or weed control at 31 g/ha: 31 g ai/ha, Preemergence; for pest or weed control at 125 g/ha: 125 g ai/ha, preemergence, approx. 10 d
In short: (§1)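 Greenhouse, ~10 d after spray; visual injury vs untreated controls, 0 = no effect, 100 = complete control. Preemergence: directed soil spray over planted seeds. Postemergence: plants 2–10 cm, 1–2 leaf stage. Loam/sand blend. Compound in non-phytotoxic solvent with surfactant.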

[2] = tested on: ryegrass, Italian (Italian ryegrass, Lolium multiflorum); test: Test A preemergence; conditions: Lolium multiflorum, pre-emergence, 240 h, 0 to 100 scale where 0 is no effect and 100 is complete control, read-out: Ryegrass, Italian plant response rating; for pest or weed control at 31 g/ha: 31 g ai/ha, Preemergence; for pest or weed control at 125 g/ha: 125 g ai/ha, preemergence, approx. 10 d
In short: as §1

[3] = tested on: barnyardgrass (Echinochloa crus-galli); test: Test A preemergence; conditions: Echinochloa crus-galli, pre-emergence, 240 h, 0 to 100 scale where 0 is no effect and 100 is complete control, read-out: Barnyardgrass plant response rating; for pest or weed control at 31 g/ha: 31 g ai/ha, Preemergence; for pest or weed control at 125 g/ha: 125 g ai/ha, preemergence, approx. 10 d
In short: as §1

[4] = tested on: pigweed (Amaranthus retroflexus); test: Test A preemergence; conditions: Amaranthus retroflexus, pre-emergence, 240 h, 0 to 100 scale where 0 is no effect and 100 is complete control, read-out: Pigweed plant response rating; for pest or weed control at 31 g/ha: 31 g ai/ha, Preemergence; for pest or weed control at 125 g/ha: 125 g ai/ha, preemergence, approx. 10 d
Kochia (Kochia scoparia) [5] = test: Test A preemergence; conditions: Bassia scoparia, pre-emergence, 240 h, 0 to 100 scale where 0 is no effect and 100 is complete control, read-out: Kochia plant response rating; for pest or weed control at 31 g/ha: 31 g ai/ha, Preemergence; for pest or weed control at 125 g/ha: 125 g ai/ha, preemergence, approx. 10 d
In short: as §1

[6] = tested on: giant foxtail (Setaria faberii); test: Test A preemergence; conditions: Setaria faberi, pre-emergence, 240 h, 0 to 100 scale where 0 is no effect and 100 is complete control, read-out: Foxtail, Giant plant response rating; for pest or weed control at 31 g/ha: 31 g ai/ha, Preemergence; for pest or weed control at 125 g/ha: 125 g ai/ha, preemergence, approx. 10 d
In short: as §1

[7] = tested on: ducksalad (Heteranthera limosa); test: Test B flooded paddy test; conditions: Heteranthera limosa, 250 g ai/ha, Flood; 0 to 100 scale where 0 is no effect and 100 is complete control; read-out: Ducksalad plant response rating
In short: (§2)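 2-leaf plants; pots flooded 3 cm over soil; cpd added to paddy water; depth held; greenhouse 13–15 d; visual rating vs controls, 0 = no effect, 100 = complete control.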

[8] = tested on: barnyardgrass (Echinochloa crus-galli); test: Test B flooded paddy test; conditions: Echinochloa crus-galli, 250 g ai/ha, Flood; 0 to 100 scale where 0 is no effect and 100 is complete control; read-out: Barnyardgrass plant response rating
In short: as §2

rice (Oryra sativa) = test: Test B flooded paddy test; conditions: Oryza sativa, 250 g ai/ha, Flood; 0 to 100 scale where 0 is no effect and 100 is complete control; read-out: Rice plant response rating
In short: as §2

[9] = tested on: sedge, umbrella (small-flower umbrella sedge, Cyperus difformis); test: Test B flooded paddy test; conditions: Cyperus difformis, 250 g ai/ha, Flood; 0 to 100 scale where 0 is no effect and 100 is complete control; read-out: Sedge, Umbrella plant response rating
In short: as §2

[10] = tested on: blackgrass (Alopecurus myosuroides); test: Test A postemergence; conditions: Alopecurus myosuroides, post-emergence, 240 h; for pest or weed control at 125 g/ha: 125 g ai/ha, postemergence, visual injury vs untreated controls after approx. 10 d, 0 = no effect, 100 = complete control, read-out: Blackgrass plant response rating (0 to 100 scale); for pest or weed control at 31 g/ha: Postemergence, 31 g ai/ha, visual injury after approx. 10 d, 0 to 100 scale, 0 no effect, 100 complete control, read-out: Plant response rating, Blackgrass
In short: as §1

[11] = tested on: ragweed (common ragweed, Ambrosia elatior); test: Test A postemergence; conditions: Ambrosia artemisiifolia, post-emergence, 240 h; for pest or weed control at 125 g/ha: 125 g ai/ha, postemergence, visual injury vs untreated controls after approx. 10 d, 0 = no effect, 100 = complete control, read-out: Ragweed plant response rating (0 to 100 scale); for pest or weed control at 31 g/ha: Postemergence, 31 g ai/ha, visual injury after approx. 10 d, 0 to 100 scale, 0 no effect, 100 complete control, read-out: Plant response rating, Ragweed
In short: as §1

corn (Zea mays) = test: Test A postemergence; conditions: Zea mays, post-emergence, 240 h; for plant injury at 125 g/ha: 125 g ai/ha, postemergence, visual injury vs untreated controls after approx. 10 d, 0 = no effect, 100 = complete control, read-out: Corn plant response rating (0 to 100 scale); for Corn plant response rating (crop injury, 0 = no effect, 100 = complete kill) at 31 g/ha: Postemergence, 31 g ai/ha, visual injury after approx. 10 d, 0 to 100 scale, 100 complete control
In short: as §1

[12] = tested on: ryegrass, Italian (Italian ryegrass, Lolium multiflorum); test: Test A postemergence; conditions: Lolium multiflorum, post-emergence, 240 h; for pest or weed control at 125 g/ha: 125 g ai/ha, postemergence, visual injury vs untreated controls after approx. 10 d, 0 = no effect, 100 = complete control, read-out: Ryegrass, Italian plant response rating (0 to 100 scale); for pest or weed control at 31 g/ha: Postemergence, 31 g ai/ha, visual injury after approx. 10 d, 0 to 100 scale, 0 no effect, 100 complete control, read-out: Plant response rating, Ryegrass, Italian
In short: as §1

[13] = tested on: barnyardgrass (Echinochloa crus-galli); test: Test A postemergence; conditions: Echinochloa crus-galli, post-emergence, 240 h; for pest or weed control at 125 g/ha: 125 g ai/ha, postemergence, visual injury vs untreated controls after approx. 10 d, 0 = no effect, 100 = complete control, read-out: Barnyardgrass plant response rating (0 to 100 scale); for pest or weed control at 31 g/ha: Postemergence, 31 g ai/ha, visual injury after approx. 10 d, 0 to 100 scale, 0 no effect, 100 complete control, read-out: Plant response rating, Barnyardgrass
In short: as §1

[14] = tested on: pigweed (Amaranthus retroflexus); test: Test A postemergence; conditions: Amaranthus retroflexus, post-emergence, 240 h; for pest or weed control at 125 g/ha: 125 g ai/ha, postemergence, visual injury vs untreated controls after approx. 10 d, 0 = no effect, 100 = complete control, read-out: Pigweed plant response rating (0 to 100 scale); for pest or weed control at 31 g/ha: Postemergence, 31 g ai/ha, visual injury after approx. 10 d, 0 to 100 scale, 0 no effect, 100 complete control, read-out: Plant response rating, Pigweed
In short: as §1

Kochia (Kochia scoparia) [15] = test: Test A postemergence; conditions: Bassia scoparia, post-emergence, 240 h; for pest or weed control at 125 g/ha: 125 g ai/ha, postemergence, visual injury vs untreated controls after approx. 10 d, 0 = no effect, 100 = complete control, read-out: Kochia plant response rating (0 to 100 scale); for pest or weed control at 31 g/ha: Postemergence, 31 g ai/ha, visual injury after approx. 10 d, 0 to 100 scale, 0 no effect, 100 complete control, read-out: Plant response rating, Kochia
In short: as §1

[16] = tested on: wheat (Triticum aestivum); test: Test A postemergence; conditions: Triticum aestivum, post-emergence, 240 h; for plant injury at 125 g/ha: 125 g ai/ha, postemergence, visual injury vs untreated controls after approx. 10 d, 0 = no effect, 100 = complete control, read-out: Wheat plant response rating (0 to 100 scale); for plant injury at 31 g/ha: Postemergence, 31 g ai/ha, visual injury after approx. 10 d, 0 to 100 scale, 0 no effect, 100 complete control, read-out: Plant response rating, Wheat
In short: as §1

[17] = tested on: giant foxtail (Setaria faberii); test: Test A postemergence; conditions: Setaria faberi, post-emergence, 240 h; for pest or weed control at 125 g/ha: 125 g ai/ha, postemergence, visual injury vs untreated controls after approx. 10 d, 0 = no effect, 100 = complete control, read-out: Foxtail, Giant plant response rating (0 to 100 scale); for pest or weed control at 31 g/ha: Postemergence, 31 g ai/ha, visual injury after approx. 10 d, 0 to 100 scale, 0 no effect, 100 complete control, read-out: Plant response rating, Foxtail, Giant
In short: as §1

[18] = tested on: Galium (catchweed bedstraw, Galium aparine); test: Test A postemergence; conditions: Galium, post-emergence, 240 h; for pest or weed control at 125 g/ha: 125 g ai/ha, postemergence, visual injury vs untreated controls after approx. 10 d, 0 = no effect, 100 = complete control, read-out: Galium plant response rating (0 to 100 scale); for pest or weed control at 31 g/ha: Postemergence, 31 g ai/ha, visual injury after approx. 10 d, 0 to 100 scale, 0 no effect, 100 complete control, read-out: Plant response rating, Galium
In short: as §1

SMILES	pest or weed control at 31 g/ha [1] [%]	pest or weed control at 125 g/ha [1] [%]	pest or weed control at 31 g/ha [2] [%]	pest or weed control at 125 g/ha [2] [%]	pest or weed control at 31 g/ha [3] [%]	pest or weed control at 125 g/ha [3] [%]	pest or weed control at 31 g/ha [4] [%]	pest or weed control at 125 g/ha [4] [%]	pest or weed control at 31 g/ha (Kochia (Kochia scoparia) [5]) [%]	pest or weed control at 125 g/ha (Kochia (Kochia scoparia) [5]) [%]	pest or weed control at 31 g/ha [6] [%]	pest or weed control at 125 g/ha [6] [%]	pest or weed control at 250 g/ha [7] [%]	pest or weed control at 250 g/ha [8] [%]	pest or weed control at 250 g/ha (rice (Oryra sativa)) [%]	pest or weed control at 250 g/ha [9] [%]	pest or weed control at 125 g/ha [10] [%]	pest or weed control at 31 g/ha [10] [%]	pest or weed control at 125 g/ha [11] [%]	pest or weed control at 31 g/ha [11] [%]	also measured
O=C1NC[C@H](c2csc3c2CCCC3)[C@H]1C(=O)Nc1cccc(F)c1F [Compound 1163]	0	0	0	0	70	90	0	0	0	20	10	60	95	30	0	0	20	0	0	0	plant injury at 125 g/ha (corn (Zea mays)): 0%; Corn plant response rating (crop injury, 0 = no effect, 100 = complete kill) at 31 g/ha (corn (Zea mays)): 0%; pest or weed control at 125 g/ha [12]: 0%; pest or weed control at 31 g/ha [12]: 0%; pest or weed control at 125 g/ha [13]: 60%; pest or weed control at 31 g/ha [13]: 30%; pest or weed control at 125 g/ha [14]: 0%; pest or weed control at 31 g/ha [14]: 0%; pest or weed control at 125 g/ha (Kochia (Kochia scoparia) [15]): 0%; pest or weed control at 31 g/ha (Kochia (Kochia scoparia) [15]): 0%; plant injury at 125 g/ha [16]: 0%; plant injury at 31 g/ha [16]: 0%; pest or weed control at 125 g/ha [17]: 0%; pest or weed control at 31 g/ha [17]: 0%; pest or weed control at 125 g/ha [18]: 20%; pest or weed control at 31 g/ha [18]: 0%
O=C1NC[C@H](c2csc3c2CCC3)[C@H]1C(=O)Nc1cccc(F)c1F [Compound 1164]	0	0	0	0	60	80	0	0	0	20	30	30	95	40	0	0	0	0	0	0	plant injury at 125 g/ha (corn (Zea mays)): 0%; Corn plant response rating (crop injury, 0 = no effect, 100 = complete kill) at 31 g/ha (corn (Zea mays)): 0%; pest or weed control at 125 g/ha [12]: 0%; pest or weed control at 31 g/ha [12]: 0%; pest or weed control at 125 g/ha [13]: 80%; pest or weed control at 31 g/ha [13]: 30%; pest or weed control at 125 g/ha [14]: 0%; pest or weed control at 31 g/ha [14]: 0%; pest or weed control at 125 g/ha (Kochia (Kochia scoparia) [15]): 0%; pest or weed control at 31 g/ha (Kochia (Kochia scoparia) [15]): 0%; plant injury at 125 g/ha [16]: 0%; plant injury at 31 g/ha [16]: 0%; pest or weed control at 125 g/ha [17]: 0%; pest or weed control at 31 g/ha [17]: 0%; pest or weed control at 125 g/ha [18]: 30%; pest or weed control at 31 g/ha [18]: 0%
